Where “and” joins values, the source holds several entries; their conditions need not be identical. Equal values may be shown once. Ends that are not written are not given here.
Key:
[1] = system: HCV pseudoparticles; assay: HCV pseudoparticle (HCVpp) entry assay in Huh7 hepatoma cells, luciferase readout; format: cell-based, hepatitis C virus; details: for HCVpp % inh: peptide library screen, first screened at 100 ug/ml, cell entry inhibition vs uninhibited control; for luciferase units, HCV entry: duplicates
Procedure, shortened: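 Huh7 cells were pre-treated with peptide for 1 h at 37 °C before exposure to HCV E1/E2-pseudotyped HIV luciferase particles made in 293T cells, followed by 72 h culture and luciferase readout. Peptides were tested at 10 points, 3-fold, from 100 ug/ml; particles lacking envelope served as non-specific entry control.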

[2] = system: amphotropic murine leukemia virus; assay: AMLV pseudotyped virus entry counter-screen, same infection protocol; format: cell-based; details: for AMLVpp % inh: peptide library screen, cell entry inhibition vs uninhibited control; for luciferase units, AMLV entry: duplicates
Protocol: Infection of hepatoma cell lines with HCV pseudotype particles and screen for inhibitory peptides. The hepatoma cells, Huh7, was seeded at 8000 cells in 90 ul medium in 96-well plate. In the case of the inhibitor screen, the inhibitor was incubated with cells for one hour at 37° C. and then 50 ul viral supernatant was added to the cells 24 hours after seeding. The viral stock was pre-tittered and diluted to yield approximately 10,000 to 20,000 RLU. The cells were incubated at 37° C. with 5% CO2 for additional 72 hours and were harvested for luciferase assay. Peptide stocks were prepared in 100% DMSO at 10 mg/ml and were first screened at 100 ug/ml and then a dose responsive curve was generated with 10 points 3-fold titration starting from 100 ug/ml.
The specificity of the peptides were counter-screened with AMLV and HIV pseudotyped viruses using the same infection protocol.

[3] = 0.01371742 uM of peptide (three lines)

T-C-G-G-P-P-C-N-I-G-G-I-C-N-K-T [SEQ ID NO: 56]
HCVpp % inh [1]: 53%
AMLVpp % inh [2]: 22%

V-V-V-G-T-T-D-R-F-G-V-P-T-Y-S-W [SEQ ID NO: 49]
HCVpp % inh [1]: 37%
AMLVpp % inh [2]: −22%

V-H-K-F-N-S-S-G-C-P-E-R-M-A-S-C [SEQ ID NO: 39]
HCVpp % inh [1]: −11%
AMLVpp % inh [2]: −15%

V-P-C-V-R-E-N-N-S-S-R-C-W-V-A-L [SEQ ID NO: 8]
HCVpp % inh [1]: −22%
AMLVpp % inh [2]: 14%

C-W-H-Y-A-P-R-P-C-G-I-V-P-A-A-Q [SEQ ID NO: 45]
HCVpp % inh [1]: 63%
AMLVpp % inh [2]: −8%

N-R-T-A-L-N-C-N-D-S-L-N-T-G-F-L (NRTALNCNDSLNTGFL; not fully specified (C-terminus); printed as N-R-T-A-L-N-C-N-D-S-L-N-T-G-F-L) [SEQ ID NO: 36]
HCVpp % inh [1]: 23%
AMLVpp % inh [2]: 18%

T-N-G-S-W-H-I-N-R-T-A-L-N-C-N-D (TNGSWHINRTALNCND; HCV peptide) [SEQ ID NO: 35]
HCVpp % inh [1]: 29%
AMLVpp % inh [2]: 30%

S-V-F-L-V-A-Q-L-F-T-F-S-P-R-R-H [SEQ ID NO: 16]
HCVpp % inh [1]: 3%
AMLVpp % inh [2]: −148%

T-G-G-T-N-A-K-N-T-L-G-I-T-S-L-F [SEQ ID NO: 31]
HCVpp % inh [1]: 41%
AMLVpp % inh [2]: −2%

T-R-P-P-Q-G-N-W-F-G-C-T-W-M-N-S [SEQ ID NO: 53]
HCVpp % inh [1]: 59%
AMLVpp % inh [2]: −42%

V-D-G-G-T-Y-V-T-G-G-T-M-A-K-N-T [SEQ ID NO: 30]
HCVpp % inh [1]: 2%
AMLVpp % inh [2]: −9%

A-I-K-W-E-Y-V-L-L-L-F-L-L [SEQ ID NO: 86]
% control (HCVpp entry), alanine scanning ([1]; 0.1 nM of peptide (printed for three rows), two values per peptide and row): 86 % control and 90 % control and 87 % control and 103 % control and 108 % control
% control (HCVpp entry), alanine scanning ([1]; 0.3 nM of peptide, two values per peptide): 96 % control and 133 % control
% control (HCVpp entry), alanine scanning ([1]; 1 nM of peptide, two values per peptide): 80 % control and 102 % control
% control (HCVpp entry), alanine scanning ([1]; 3 nM of peptide, two values per peptide): 90 % control and 118 % control
% control (HCVpp entry), alanine scanning ([1]; 10 nM of peptide, two values per peptide): 69 % control and 67 % control
luciferase units, HCV entry [1, 3]: 10981 luciferase units and 12701 luciferase units and 17159 luciferase units and 18427 luciferase units and 19121 luciferase units and 16287 luciferase units
% control (HCVpp entry), alanine scanning ([1]; 30 nM of peptide, two values per peptide): 59 % control and 60 % control
luciferase units, HCV entry ([1]; 0.04115226 uM of peptide): 8349 luciferase units and 8612 luciferase units
% control (HCVpp entry), alanine scanning ([1]; 100 nM of peptide, two values per peptide): 48 % control and 33 % control
luciferase units, HCV entry ([1]; 0.1234568 uM of peptide): 6445 luciferase units and 3869 luciferase units
% control (HCVpp entry), alanine scanning ([1]; 300 nM of peptide, two values per peptide): 25 % control and 30 % control
luciferase units, HCV entry ([1]; 0.3703704 uM of peptide): 5748 luciferase units and 3127 luciferase units
luciferase units, HCV entry ([1]; 1.111111 uM of peptide): 3652 luciferase units and 3574 luciferase units
luciferase units, HCV entry ([1]; 3.333333 uM of peptide): 2746 luciferase units and 2356 luciferase units
% control (HCVpp entry), alanine scanning ([1]; 10000 nM of peptide, two values per peptide): 27 % control and 25 % control
luciferase units, HCV entry ([1]; 30 uM of peptide): 1899 luciferase units and 1645 luciferase units
% control (HCVpp entry), alanine scanning ([1]; 30000 nM of peptide, two values per peptide): 15 % control and 27 % control
% of control at ~30 uM ([1]; percentage of hepatitis C virus cellular entry at 30 μM peptide vs uninhibited control): 13%
luciferase units, AMLV entry [2, 3]: 42295 luciferase units and 44556 luciferase units and 43059 luciferase units and 48854 luciferase units and 37783 luciferase units and 49462 luciferase units
luciferase units, AMLV entry ([2]; 0.04115226 uM of peptide): 42084 luciferase units and 47952 luciferase units
luciferase units, AMLV entry ([2]; 0.1234568 uM of peptide): 37163 luciferase units and 47412 luciferase units
luciferase units, AMLV entry ([2]; 0.3703704 uM of peptide): 43543 luciferase units and 47987 luciferase units
luciferase units, AMLV entry ([2]; 1.111111 uM of peptide): 40296 luciferase units and 43593 luciferase units
luciferase units, AMLV entry ([2]; 3.333333 uM of peptide): 53350 luciferase units and 39047 luciferase units
luciferase units, AMLV entry ([2]; 10 uM of peptide): 70573 luciferase units and 72462 luciferase units
luciferase units, AMLV entry ([2]; 30 uM of peptide): 76174 luciferase units and 71333 luciferase units

S-S-D-Q-R-P-Y-C-W-H-Y-A-P-R-P-C [SEQ ID NO: 44]
HCVpp % inh [1]: 14%
AMLVpp % inh [2]: 15%

V-C-A-C-L-W-M-M-L-L-I-A-Q-A-E-A [SEQ ID NO: 80]
HCVpp % inh [1]: 16%
AMLVpp % inh [2]: 7%

K-T-L-T-C-P-T-D-C-F-R-K-H-P-E-A [SEQ ID NO: 58]
HCVpp % inh [1]: 50%
AMLVpp % inh [2]: 13%

M-A-W-D-M-M-M-N-W-S-P-T-A-A-L-V (MAWDMMMNWSPTAALV; not fully specified (C-terminus); printed as M-A-W-D-M-M-M-N-W-S-P-T-A-A-L-V) [SEQ ID NO: 21]
HCVpp % inh [1]: 32%
AMLVpp % inh [2]: 3%

Y-G-I-G-S-A-V-V-S-F-A-I-K-W-E-Y [SEQ ID NO: 76]
HCVpp % inh [1]: 7%
AMLVpp % inh [2]: 24%

Source: patent US20100119483A1, “PEPTIDE VIRAL ENTRY INHIBITORS” (Schering Corporation, priority 2004, published 2010)
